From US7846950B2, “Histamine H3 receptor inhibitors, preparation and therapeutic uses” (Eli Lilly and Company, priority 2004, dated 2010)

Target: T1, human histamine 3 receptor (Homo sapiens, UniProt Q9Y5N1)
T1 construct: expressed in transfected cells; membranes
Test: H3R binding assay (competitive inhibition SPA, [3H] alpha-methylhistamine, HEK293 H3R8 membranes)
Settings: read-out: Human H3 Receptor Ki
Text: The compounds of the present invention can readily be evaluated by using a competitive inhibition Scintillation Proximity Assay (SPA) based on a H3R binding assay using [3H] α methylhistamine as ligand. Stable cell lines, including but not limited to HEK can be transfected with cDNA coding for H3R to prepare membranes used for the binding assay. The technique is illustrated below (Preparation of Histamine Receptor Subtype Membranes) for the histamine receptor subtypes.
cDNA for the human histamine 1 receptor (H1R) was cloned into a mammalian expression vector containing the CMV promoter (pcDNA3.1(+), Invitogen) and transfected into HEK293 cells using the FuGENE Tranfection Reagent (Roche Diagnostics Corporation). Transfected cells were selected using G418 (500 μ/mL). Colonies that survived selection were grown and tested for histamine binding to cells grown in 96-well dishes using a scintillation proximity assay (SPA) based radioligand binding assay. Briefly, cells, representing individual selected clones, were grown as confluent monolayers in 96-well dishes (Costar Clear Bottom Plates, #3632) by seeding wells with 25,000 cells and growing for 48 hours (37° C., 5% CO2). […] Plates were counted in a Wallac Trilux 1450 Microbeta scintillation counter. […]
cDNA for the human histamine 3 receptor was cloned and expressed as described in (A. Preparation H1R membranes), above. […]

T1 sequence (Q9Y5N1 whole entry): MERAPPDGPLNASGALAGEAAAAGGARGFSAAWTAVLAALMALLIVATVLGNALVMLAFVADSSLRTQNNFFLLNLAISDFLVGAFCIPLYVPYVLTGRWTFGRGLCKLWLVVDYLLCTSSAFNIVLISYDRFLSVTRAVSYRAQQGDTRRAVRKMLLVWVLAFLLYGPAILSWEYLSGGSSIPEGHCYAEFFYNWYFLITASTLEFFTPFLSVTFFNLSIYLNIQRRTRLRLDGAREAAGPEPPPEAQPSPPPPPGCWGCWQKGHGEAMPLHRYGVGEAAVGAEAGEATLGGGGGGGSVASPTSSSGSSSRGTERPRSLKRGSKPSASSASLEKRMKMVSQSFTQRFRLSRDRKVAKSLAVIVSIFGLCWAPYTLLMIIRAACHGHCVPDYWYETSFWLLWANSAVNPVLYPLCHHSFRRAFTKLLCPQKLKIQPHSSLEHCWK

Ki [nM] | Compound
1.8 | C[C@@H]1CCCN1C[C@@H]1CCCN1C(=O)c1ccc(OCc2ncon2)cc1F
6.2 | O=C(c1ccc(OCc2ccco2)cc1)N1CCC[C@H]1CN1CCCC1
